Results on 9 compounds are retold here after patent US10981932B2, “Macrocyclic indole derivatives” (Bayer Aktiengesellschaft, priority 2016, dated 2021).

Series [1] has as its system SUDHL5. In words: Induction of caspase-3/7 activity (Caspase-Glo 3/7), SUDHL5. The note with it: caspase-3/7 induction, SUDHL5 cells, 3 h treatment, median. The series is classed as cell-based. In short, it runs like this: (§1)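 Apoptosis induction measured as caspase-3/7 activity (Caspase-Glo 3/7) in DLBCL lines after 3 h treatment at 37 °C; EC50 derived relative to the reference compound's maximal induction, with C0 fixed at 1.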

Series [2] has as its system SUDHL10. In words: Induction of caspase-3/7 activity (Caspase-Glo 3/7), SUDHL10. Type of series: cell-based. The note with it: caspase-3/7 induction, SUDHL10 cells, 3 h treatment, median. In short, it runs like this:
as §1

For series [3], the system named is SUDHL5. In words: Anti-proliferative effect (CellTiter-Glo, 72 h), SUDHL5. The note with it: SUDHL5 cells, antiproliferation, median, read-out: Antiproli SUDHL5 [M] (median). The series is classed as cell-based. In short, it runs like this: (§2)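 After seeding, one plate is read right away by CellTiter-Glo luminescence to fix time zero. The treated plates stay at 37 °C in humidified air for 72 h and are then measured with the same reagent and 10 min incubation.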
(In ATP-based viability assays light output follows the ATP content of the culture.)

Series [4] deals with SUDHL10. In words: Induction of cytotoxicity (CellTiter-Glo, 5 h), SUDHL10.
In a further series the target is MCL-1 (Homo sapiens, UniProt Q07820). In words: Protein-protein interaction assay MCL-1/Noxa BH3 peptide (MCL-1 assay), TR-FRET. Type of series: binding. The note with it: MBP-MCL-1 / Noxa BH3-derived peptide, median. In short, it runs like this: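 Inhibition values were normalized between DMSO controls with all reagents and controls lacking MCL-1. The binding competition used 1 nM MBP-MCL-1 in pH 7 Tris buffer containing 50 mM KF and 100 mM NaCl, with a 10 min compound preincubation at 22 °C.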
A general note: Time-resolved FRET reads energy transfer from a long-lived donor to a nearby acceptor.

The subject of series [5] is SUDHL5. In words: Induction of cytotoxicity (CellTiter-Glo, 5 h), SUDHL5.
The subject of a further series is A2780. In words: Anti-proliferative effect (CellTiter-Glo, 72 h), A2780. Particulars: A2780 cells, median, read-out: IC50 antiproliferation assay A2780 [M] (median). Type of series: cell-based. In short, it runs like this:
as §2

For the next series, the system named is MV-4-11. In words: Anti-proliferative effect (CellTiter-Glo, 72 h), MV-4-11. Type of series: cell-based. The note with it: MV-4-11 cells, median, read-out: IC50 antiproliferation assay MV-4-11 [M] (median). In short, it runs like this: as §2
Setting [6] is: read-out: Cytotox SUDHL10 [M] (median), SUDHL10 cells, cytotoxicity induction, CellTiter-Glo, 5 h, median.
The mark [7] stands for this setting: read-out: Cytotox SUDHL5 [M] (median), SUDHL5 cells, cytotoxicity induction, CellTiter-Glo, 5 h, median.
Setting [8] is: Homo sapiens, SU-DHL-5, 72 h, 72 h.
[9] abbreviates: Homo sapiens, SU-DHL10, 5 h, read-out: Cytotox SUDHL10 [M] (median), SUDHL10 cells, cytotoxicity induction, CellTiter-Glo, 5 h, median.
[10] abbreviates: Homo sapiens, SU-DHL-5, 5 h, read-out: Cytotox SUDHL5 [M] (median), SUDHL5 cells, cytotoxicity induction, CellTiter-Glo, 5 h, median.
Setting [11] is: read-out: Cytotox SUDHL10 [M] (median), SUDHL10 cells, cytotoxicity induction, CellTiter-Glo, 5 h incubation, median.
The mark [12] stands for this setting: read-out: Cytotox SUDHL5 [M] (median), SUDHL5 cells, cytotoxicity induction, CellTiter-Glo, 5 h incubation, median.

Several values for one entry are separate records, joined by “and”; a condition that tells them apart may be missing. Equal entries are not always repeated. Structures can show the parent of a compound that is named as a salt. Where two headings read alike, the source gives them in different places.

Sequence of MCL-1 (Q07820 whole entry): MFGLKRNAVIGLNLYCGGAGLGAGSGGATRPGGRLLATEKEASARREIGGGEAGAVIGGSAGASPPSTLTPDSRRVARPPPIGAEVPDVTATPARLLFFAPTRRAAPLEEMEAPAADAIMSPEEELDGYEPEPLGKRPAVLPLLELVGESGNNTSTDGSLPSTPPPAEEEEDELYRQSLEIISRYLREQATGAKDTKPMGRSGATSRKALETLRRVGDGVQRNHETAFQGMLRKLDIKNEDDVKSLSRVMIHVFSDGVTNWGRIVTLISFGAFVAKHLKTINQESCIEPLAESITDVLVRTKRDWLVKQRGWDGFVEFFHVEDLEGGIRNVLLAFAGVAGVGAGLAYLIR

Consider `Cc1c2c(nn1C)COCCCCn1c(C(=O)O)c(CCCOc3cccc4cc(F)ccc34)c3cccc-2c31` (single isomer, unassigned; enantiomer 1) [Example 303, (−)-7-{3-((6-fluoronaphthalen-1-yl)oxypropyl}-2,3-dimethyl-2,10,11,12,13,15-hexahydropyrazolo[4′,3′:9,10][1,6]oxazacycloundecino[8,7,6-hi]indole-8-carboxylic Acid (Enantiomer 1)], for which the EC50 in the series with SUDHL5 [1] and in the series on SUDHL10 [2] was more than 33 µM in each case. Also, the IC50 in the series on SUDHL5 [3] (72 h) is 6.97e-06 M; in the series on SUDHL10 [4] (setting [6]) it was more than 3.3e-05 M; against MCL-1, 0.0268 µM; in the series with SUDHL5 [5] (setting [7]), more than 3.3e-05 M; in the series with A2780 it was 2.4e-05 M; in the series on MV-4-11, 2.61e-05 M.

In the case of `Cn1nc(COCc2ccc(C#N)cc2)c2c1COCCCCn1c(C(=O)O)c(CCCOc3cccc4ccccc34)c3cccc-2c31` (single isomer, unassigned; enantiomer 1) [Example 347, 3-({[(4-cyanobenzyl)oxy]methyl}-1-methyl-7-[3-(naphthalen-1-yloxy)propyl]-1,10,11,12,13,15-hexahydropyrazolo[4′,3′:9,101][1,6]oxazacycloundecino[8,7,6-hi]indole-8-carboxylic acid-N-ethylethanamine Salt (Enantiomer 1)], the EC50 in the series with SUDHL5 [1] was more than 33 µM; in the series with SUDHL10 [2] (Homo sapiens, SU-DHL10, 3 h), more than 33 µM. In addition, the IC50 is 4.2e-06 M in the series on SUDHL5 [3] (setting [8]); more than 3.3e-05 M with SUDHL10 [4] (setting [9]); 0.343 µM against MCL-1; more than 3.3e-05 M in the series on SUDHL5 [5] (setting [7]); 9.45e-06 M in the series on A2780 (Homo sapiens, A2780, 72 h); 1.2e-05 M in the series on MV-4-11.

For the compound `COc1ccc2c(CCCOc3cccc4ccccc34)c(C(=O)O)n3c2c1-c1c(nn(C)c1C)COCCCC3` (single isomer, unassigned; enantiomer 1) [Example 350, 4-methoxy-2,3-dimethyl-7-[3-(naphthalen-1-yloxy)propyl]-2,10,11,12,13,15-hexahydropyrazolo[4′,3′:9,10][1,6]oxazacycloundecino[8,7,6-hi]indole-8-carboxylic acid-N-ethylethanamine Salt (Enantiomer 1)], the EC50 is 24.3 µM in the series on SUDHL5 [1] (Homo sapiens, SU-DHL-5, 3 h); more than 33 µM in the series with SUDHL5 [1]; more than 33 µM in the series on SUDHL10 [2] (Homo sapiens, SU-DHL10, 3 h). Besides, the IC50 is 1.38e-05 M in the series with SUDHL5 [3] (setting [8]); 3.11e-05 M with SUDHL10 [4] (setting [9]); more than 3.3e-05 M with SUDHL10 [4] (setting [6]); 0.0563 µM against MCL-1; 2.07e-05 M in the series with SUDHL5 [5] (setting [10]); more than 3.3e-05 M in the series on A2780 (Homo sapiens, A2780, 72 h). Moreover, in the series with MV-4-11, the IC50 stood at 1.53e-05 M.

Consider `COc1ccc2c(CCCOc3cccc4ccccc34)c(C(=O)O)n3c2c1-c1c(C)nn(C)c1COCCCC3` (single isomer, unassigned; enantiomer 1) [Example 352, 4-methoxy-1,3-dimethyl-7-[3-(naphthalen-1-yloxy)propyl]-1,10,11,12,13,15-hexahydropyrazolo[4′,3′:9,10][1,6]oxazacycloundecino[8,7,6-hi]indole-8-carboxylic Acid Ammonium Salt (Enantiomer 1)], for which the half-maximal effective concentration (EC50) is more than 33 µM in the series on SUDHL5 [1] (Homo sapiens, SU-DHL-5, 3 h) and more than 33 µM with SUDHL10 [2] (Homo sapiens, SU-DHL10, 3 h). In addition, the IC50 is 1.19e-05 M in the series with SUDHL5 [3] (setting [8]); more than 3.3e-05 M in the series on SUDHL10 [4] (setting [9]); 0.0454 µM against MCL-1; more than 3.3e-05 M in the series on SUDHL5 [5] (setting [10]); more than 3.3e-05 M in the series on A2780 (Homo sapiens, A2780, 72 h); 1.05e-05 M in the series on MV-4-11.

Turning to `Cc1ccc2c(CCCOc3cccc4ccccc34)c(C(=O)O)n3c2c1-c1c(C)nn(C)c1COCCC3` (single isomer, unassigned; enantiomer 2) [Example 026, (−)-9,11,12-trimethyl-1-[3-(naphthalen-1-yloxy)propyl]-5,6,8,9-tetrahydro-4H-pyrazolo[4′,3′:8,9][1,5]oxazecino[7,6,5-hi]indole-2-carboxylic acid-N-ethylethanamine Salt (Enantiomer 2)], the EC50 in the series with SUDHL5 [1] worked out at 23.8 µM; with SUDHL10 [2], 20.2 µM. Besides, the IC50 in the series on SUDHL5 [3] (72 h incubation) was determined as 8.59e-06 M; in the series on SUDHL10 [4] (setting [11]), 2.58e-05 M; against MCL-1, 0.0234 µM; in the series with SUDHL5 [5] (setting [12]) it was 2.41e-05 M; with A2780, 1.97e-05 M; in the series on MV-4-11 (Homo sapiens, MV4-11, 72 h) it was 1.14e-05 M.

As to `Cn1nc2c(c1CN1CCOCC1)-c1cccc3c(CCCOc4cccc5ccccc45)c(C(=O)O)n(c13)CCCCOC2` (single isomer, unassigned; enantiomer 2) [Example 080, 2-methyl-3-(morpholin-4-ylmethyl)-7-[3-(naphthalen-1-yloxy)propyl]-2,10,11,12,13,15-hexahydropyrazolo[4′3′:9,10][1,6]oxazacycloundecino[8,7,6-hi]indole-8-carboxylic acid-N-ethylethanamine Salt (Enantiomer 2)], the concentration for a half-maximal effect (EC50) in the series with SUDHL5 [1] and in the series on SUDHL10 [2] was more than 33 µM throughout. For the same compound, the IC50 was 1.56e-05 M in the series with SUDHL5 [3] (72 h incubation); more than 3.3e-05 M in the series on SUDHL10 [4] (setting [11]); 0.0312 µM on MCL-1; more than 3.3e-05 M with SUDHL5 [5] (setting [12]); 2.41e-05 M with A2780; 1.21e-05 M in the series on MV-4-11.

Turning to `COCCn1nc(C2CC2)c2c1COCCCCn1c(C(=O)O)c(CCCOc3cccc4c3CCCC4)c3cccc-2c31` (single isomer, unassigned; enantiomer 2) [Example 166, 3-Cyclopropyl-1-(2-methoxyethyl)-7-[3-(5,6,7,8-tetrahydronaphthalen-1-yloxy)propyl]-1,10,11,12,13,15-hexahydropyrazolo[4′,3′:9,10][1,6]oxazacycloundecino[8,7,6-hi]indole-8-carboxylic acid-N-ethylethanamine Salt (Enantiomer 2)], the EC50 in the series on SUDHL5 [1] was 30.7 µM; in the series with SUDHL10 [2] it was more than 33 µM. For the same compound, the IC50 in the series with SUDHL5 [3] (72 h incubation) was 1.26e-05 M; in the series on SUDHL10 [4] (setting [11]), more than 3.3e-05 M; on MCL-1, 0.041 µM; in the series with SUDHL5 [5] (setting [12]) it was 2.81e-05 M; in the series with A2780 it was 2.82e-05 M; in the series on MV-4-11, 1.88e-05 M.

`COCc1nn(C)c2c1-c1cccc3c(CCCOc4cccc5ccccc45)c(C(=O)O)n(c13)CCCCCOC2` (single isomer, unassigned; enantiomer 2) [Example 179, 3-(methoxymethyl)-1-methyl-7-[3-(naphthalen-1-yloxy)propyl]-1,11,12,13,14,16-hexahydro-10H-pyrazolo[3′,4′:3,4][1,7]oxazacyclododecino[5,6,7-hi]indole-8-carboxylic acid-N-ethylethanamine Salt (Enantiomer 2)]: the concentration for a half-maximal effect (EC50) in the series with SUDHL5 [1] came to 11.9 µM; with SUDHL10 [2] it was 26.9 µM. The IC50 was 1.48e-05 M in the series with SUDHL5 [3] (72 h incubation); > 3.3e-05 M and 3.15e-05 M in the series with SUDHL10 [4] (setting [11]); 0.00943 µM against MCL-1; 1.22e-05 M in the series on SUDHL5 [5] (setting [12]); more than 3.3e-05 M in the series on A2780; 9.83e-06 M in the series on MV-4-11 (Homo sapiens, MV4-11, 72 h).

As for `CCc1c2c(nn1CCN1CCOCC1)COCCCCn1c(C(=O)O)c(CCCOc3cccc4ccccc34)c3ccc(C)c-2c31` (single isomer, unassigned; enantiomer 2) [Example 206, 3-ethyl-4-methy-2-[2-(morpholin-4-yl)ethyl]-7-[3-(naphthalen-1-yloxy)propyl]-2,10,11,1213,15-hexahydropyrazolo[4′3′:9,10][1,6]oxazacycloundecino[8,7,6-hi]indole-carboxylic Acid (Enantiomer 2)], the EC50 was 13.1 µM with SUDHL5 [1] and 17.5 µM in the series with SUDHL10 [2]. Moreover, the IC50 worked out at 1.03e-05 M in the series on SUDHL5 [3] (72 h incubation); 1.6e-05 M in the series on SUDHL10 [4] (setting [11]); 0.0155 µM on MCL-1; 1.4e-05 M in the series on SUDHL5 [5] (setting [12]); 2.28e-05 M in the series on A2780; 1.92e-05 M in the series on MV-4-11.

By EC50 is commonly meant the concentration giving half of the maximal effect.
